How the values were obtained:
[1] = target: T1, AcCATPO (Amaranthus cruentus, UniProt A0A2Z0PTH5); experiment: catalase activity, H2O2 decrease at […] nm; format: biochemical; conditions: read-out: % inhibition at 1 mM
T1 sequence (A0A2Z0PTH5 1-492): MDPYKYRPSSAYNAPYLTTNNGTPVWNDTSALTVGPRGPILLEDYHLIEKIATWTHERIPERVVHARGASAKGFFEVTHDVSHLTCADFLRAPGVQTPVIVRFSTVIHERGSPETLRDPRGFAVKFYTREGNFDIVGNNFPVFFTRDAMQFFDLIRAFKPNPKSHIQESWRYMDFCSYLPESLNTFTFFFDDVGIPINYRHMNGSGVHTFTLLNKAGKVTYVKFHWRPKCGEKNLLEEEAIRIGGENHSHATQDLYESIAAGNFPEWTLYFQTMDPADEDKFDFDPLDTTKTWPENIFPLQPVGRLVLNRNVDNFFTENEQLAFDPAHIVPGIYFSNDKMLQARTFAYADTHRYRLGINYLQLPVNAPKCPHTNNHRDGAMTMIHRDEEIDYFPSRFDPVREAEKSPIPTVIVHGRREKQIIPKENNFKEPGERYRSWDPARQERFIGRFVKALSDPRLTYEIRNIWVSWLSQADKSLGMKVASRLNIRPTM

[2] = target: T1, AcCATPO; experiment: monophenolase activity toward L-tyrosine, absorbance […] nm; format: biochemical; conditions: L-tyrosine substrate, 0.057 mM L-DOPA cofactor, no added CuSO4
[3] = target: T1, AcCATPO; format: biochemical
[4] = target: T1, AcCATPO; experiment: catalase activity, H2O2 decrease at […] nm; format: biochemical; conditions: not significant, H2O2 substrate (14 mM in standard assay), pH 7.0, 20 °C
[5] = target: T1, AcCATPO; experiment: monophenolase activity toward L-tyrosine, absorbance […] nm; format: biochemical; conditions: L-tyrosine substrate, 0.057 mM L-DOPA cofactor, no added CuSO4, chelator
[6] = target: T1, AcCATPO; experiment: diphenolase activity toward L-DOPA, absorbance […] nm and in-gel staining; format: biochemical; conditions: 1 mM L-DOPA substrate, pH 8.0, 60 °C, chelator
[7] = target: T1, AcCATPO; experiment: as above; format: biochemical; conditions: activation, not inhibition, 1 mM L-DOPA substrate, pH 8.0, 60 °C
[8] = target: T1, AcCATPO; experiment: monophenolase activity toward L-tyrosine, absorbance […] nm; format: biochemical; conditions: activation, not inhibition, L-tyrosine substrate, 0.057 mM L-DOPA cofactor, no added CuSO4
[9] = substrate: N[C@@H](Cc1ccc(O)cc1)C(=O)O; experiment: purified protein; format: biochemical, Amaranthus cruentus; conditions: monophenolase, 0.057 mM L-DOPA as cofactor, pH 8.0, 60 °C
[10] = substrate: N[C@@H](Cc1ccc(O)c(O)c1)C(=O)O; experiment: purified protein; format: biochemical, Amaranthus cruentus; conditions: diphenolase, pH 8.0, 60 °C

NNC(=O)c1ccncc1 [isoniazid]
inhibition at 1000 µM [1]: ~90%

O=c1cc(CO)occ1O [kojic acid]
% decrease at 1 mM [2]: ~ 15%

NC(=S)Nc1ccccc1 [phenylthiocarbamide]
% inhibition at 1 mM [3]: all inhibitors except tropolone, had a significantly inhibitory effect on the monophenolase activity

O=C(O)c1ccccc1O [salicylic acid]
% decrease at 1 mM [4]: < 25%

CCN(CC)C(=S)S [sodium diethyldithiocarbamate]
% loss of activity at 1 mM [5]: ~ 80%
% loss of activity at 1 mM [6]: ~ 99%

O=c1cccccc1O [tropolone]
% increase of activity at 1 mM [7]: ~ 55%
% increase of activity at 1 mM [8]: ~ 25%

B1: AcCATPO (Amaranthus cruentus) (protein)
chain: T1 sequence (A0A2Z0PTH5 1-492)
notes: native, purified from red-violet leaves by native-PAGE gel slice; homotrimer ca. 170 kDa, subunit ca. 58 kDa; cDNA encodes 492 residues; peptides GPILLEDYHLIEK, APGVQTPVIVR, FSTVIHER, ENNFKEPGER, TFAYADTHR
Km [9]: 200 µM
Vmax [9]: 0.079 µM/min
kcat [9]: 0.04 s⁻¹
kcat/Km [9]: 200 M⁻¹ s⁻¹
Km [10]: 600 µM
Vmax [10]: 0.75 µM/min
kcat [10]: 0.36 s⁻¹
kcat/Km [10]: 600 M⁻¹ s⁻¹

From article PMC4705222, “Identification of a Catalase-Phenol Oxidase in Betalain Biosynthesis in Red Amaranth (Amaranthus cruentus)” (Frontiers in Plant Science, 2016)
